Results from ChEMBL document CHEMBL1201862, “PubChem BioAssay data set” (2004).
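Values below derive from 48-hour exposures of cells grown in 96-well plates, with endpoints linearly interpolated between the two concentrations bracketing the appropriate inhibition level. The concentration for 50% growth inhibition is given as GI50.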 The source made the active and inactive calls. No stated cut-off is given here; in the data, active = GI50 up to about 1.1 µM and inactive = higher.

Key:
Assay in all cases: DTP human tumour cell line panel, 48 h
A549 = tested on: A549
BT-549 = tested on: BT-549
EKVX = tested on: EKVX
HCT-116 = tested on: HCT-116
HOP-92 = tested on: HOP-92
MDA-MB-231 = tested on: MDA-MB-231
Malme-3M = tested on: Malme-3M
NCI-H23 = tested on: NCI-H23
NCI-H460 = tested on: NCI-H460
OVCAR-4 = tested on: OVCAR-4
OVCAR-8 = tested on: OVCAR-8
PC-3 = tested on: PC-3
SF-268 = tested on: SF-268
SK-MEL-2 = tested on: SK-MEL-2
SK-MEL-5 = tested on: SK-MEL-5
SN12C = tested on: SN12C
SR = tested on: SR
T47D = tested on: T47D
UO-31 = tested on: UO-31
NCI-H522 = tested on: NCI-H522

Structure (SMILES)	GI50 (A549)	GI50 (BT-549)	GI50 (EKVX)	GI50 (HCT-116)	GI50 (HOP-92)	GI50 (MDA-MB-231)	GI50 (Malme-3M)	GI50 (NCI-H23)	GI50 (NCI-H460)	GI50 (OVCAR-4)	GI50 (OVCAR-8)	GI50 (PC-3)	GI50 (SF-268)	GI50 (SK-MEL-2)	GI50 (SK-MEL-5)	GI50 (SN12C)	GI50 (SR)	GI50 (T47D)	GI50 (UO-31)	GI50 (NCI-H522)
O=C(N/N=C\c1ccc([N+](=O)[O-])cc1)c1ccccc1Nc1ccccc1C(=O)N/N=C/c1ccc([N+](=O)[O-])cc1	> 100 µM (inactive)	> 100 µM (inactive)	> 100 µM (inactive)	> 100 µM (inactive)	> 100 µM (inactive)	25.8 µM (inactive)	39.4 µM (inactive)	> 100 µM (inactive)	> 100 µM (inactive)	> 100 µM (inactive)	> 100 µM (inactive)	> 100 µM (inactive)	> 100 µM (inactive)	> 100 µM (inactive)	> 100 µM (inactive)	> 100 µM (inactive)	79.3 µM (inactive)	> 100 µM (inactive)	> 100 µM (inactive)	
Cc1ccc(S(=O)(=O)NC(=O)NC(CO)C(=O)O)cc1 (stereo not drawn)	> 100 µM (inactive)	> 100 µM (inactive)		> 100 µM (inactive)	> 100 µM (inactive)	> 100 µM (inactive)	> 100 µM (inactive)	> 100 µM (inactive)	> 100 µM (inactive)	> 100 µM (inactive)	> 100 µM (inactive)	> 100 µM (inactive)	> 100 µM (inactive)	> 100 µM (inactive)	> 100 µM (inactive)	> 100 µM (inactive)	> 100 µM (inactive)	> 100 µM (inactive)	> 100 µM (inactive)	> 100 µM (inactive)
CC1(C)C(c2ccccc2)=[N+]([O-])C(C)(C)N1O	> 10 µM (inactive)	> 10 µM (inactive)	> 10 µM (inactive)	> 10 µM (inactive)	> 10 µM (inactive)	> 10 µM (inactive)	> 10 µM (inactive)	> 10 µM (inactive)	> 10 µM (inactive)	> 10 µM (inactive)	> 10 µM (inactive)	> 10 µM (inactive)	> 10 µM (inactive)	> 10 µM (inactive)	> 10 µM (inactive)	> 10 µM (inactive)	> 10 µM (inactive)	> 10 µM (inactive)		> 10 µM (inactive)
CC(=O)OCC1OC(n2c(C)cc(C)c(C#N)c2=S)C(OC(C)=O)C(OC(C)=O)C1OC(C)=O (stereo not drawn)	> 100 µM (inactive)	> 100 µM (inactive)		> 100 µM (inactive)	> 100 µM (inactive)	> 100 µM (inactive)	> 100 µM (inactive)	> 100 µM (inactive)	> 100 µM (inactive)	> 100 µM (inactive)	> 100 µM (inactive)	> 100 µM (inactive)	> 100 µM (inactive)	> 100 µM (inactive)	> 100 µM (inactive)	> 100 µM (inactive)	> 100 µM (inactive)	> 100 µM (inactive)	> 100 µM (inactive)	> 100 µM (inactive)
COC(=O)c1cccc(OC)c1C#Cc1c(OC)cccc1OC	> 100 µM (inactive)	> 100 µM (inactive)	> 100 µM (inactive)	> 100 µM (inactive)	> 100 µM (inactive)	> 100 µM (inactive)	> 100 µM (inactive)	> 100 µM (inactive)	> 100 µM (inactive)	54.1 µM (inactive)	> 100 µM (inactive)	> 100 µM (inactive)	> 100 µM (inactive)	> 100 µM (inactive)	> 100 µM (inactive)	> 100 µM (inactive)	> 100 µM (inactive)	76.2 µM (inactive)	> 100 µM (inactive)	0.47 µM (active)
Cc1nc2sc3ccccc3n2c(=O)c1/N=N/c1ccc(Cl)cc1	> 100 µM (inactive)	> 100 µM (inactive)	> 100 µM (inactive)	> 100 µM (inactive)	> 100 µM (inactive)	83.9 µM (inactive)	> 100 µM (inactive)	> 100 µM (inactive)	> 100 µM (inactive)	> 100 µM (inactive)	> 100 µM (inactive)	> 100 µM (inactive)	> 100 µM (inactive)	> 100 µM (inactive)	> 100 µM (inactive)	> 100 µM (inactive)	> 100 µM (inactive)	> 100 µM (inactive)		> 100 µM (inactive)
CC1C2CC(CC2=O)C1(C)C (stereo not drawn)	> 100 µM (inactive)	> 100 µM (inactive)	> 100 µM (inactive)	> 100 µM (inactive)	> 100 µM (inactive)	> 100 µM (inactive)	> 100 µM (inactive)	> 100 µM (inactive)	> 100 µM (inactive)	> 100 µM (inactive)	> 100 µM (inactive)	> 100 µM (inactive)	> 100 µM (inactive)		> 100 µM (inactive)	> 100 µM (inactive)	> 100 µM (inactive)	> 100 µM (inactive)	> 100 µM (inactive)	> 100 µM (inactive)
CC1C2CC(CC23OCC(CCl)O3)C1(C)C (stereo not drawn)	> 100 µM (inactive)	> 100 µM (inactive)	> 100 µM (inactive)	> 100 µM (inactive)	> 100 µM (inactive)	> 100 µM (inactive)	> 100 µM (inactive)	> 100 µM (inactive)	> 100 µM (inactive)	> 100 µM (inactive)	> 100 µM (inactive)	> 100 µM (inactive)	> 100 µM (inactive)		> 100 µM (inactive)	> 100 µM (inactive)	> 100 µM (inactive)	> 100 µM (inactive)	> 100 µM (inactive)	> 100 µM (inactive)
CCOC(=O)C(NC(=O)c1ccccc1)(N1CCN(c2cc3c(cc2F)c(=O)c(C(=O)O)cn3CC)CC1)C(F)(F)F (stereo not drawn)	39.9 µM (inactive)	35.9 µM (inactive)	17.1 µM (inactive)	33.9 µM (inactive)	28.8 µM (inactive)	23.6 µM (inactive)	22 µM (inactive)	32.4 µM (inactive)	32.1 µM (inactive)	33.1 µM (inactive)	19.2 µM (inactive)	31.3 µM (inactive)	40.9 µM (inactive)	31.5 µM (inactive)	22.9 µM (inactive)	32.9 µM (inactive)	27.2 µM (inactive)	23.9 µM (inactive)	31.3 µM (inactive)	16.7 µM (inactive)
CC(C)C(CC(=O)OCC(CO)OC(=O)CC(C(C)C)C(C)C)C(C)C (stereo not drawn)	11 µM (inactive)	19.1 µM (inactive)	14 µM (inactive)	16.2 µM (inactive)	2.75 µM (inactive)	15.7 µM (inactive)	15.1 µM (inactive)	16.6 µM (inactive)	11.8 µM (inactive)	18 µM (inactive)		14.4 µM (inactive)	14.3 µM (inactive)	18.2 µM (inactive)	11.9 µM (inactive)	12.9 µM (inactive)	22.1 µM (inactive)	16.6 µM (inactive)	14.6 µM (inactive)	12.6 µM (inactive)
CCN(CC)CCC(=O)OC1C(C)=CC(C)C(=O)CC(C(C)CC2CCC(O)C(OC)C2)OC(=O)C2CCCCN2C(=O)C(=O)[C@@]2(O)OC(CCC2C)CC(OC)\C(C)=C/C=C/C=C/C(C)CC(C)C(=O)C1OC (stereo partly drawn)	< 0.01 µM (active)	< 0.01 µM (active)	< 0.01 µM (active)	5.89 µM (inactive)	< 0.01 µM (active)	12.8 µM (inactive)		11.7 µM (inactive)		< 0.01 µM (active)		< 0.01 µM (active)	1.07 µM (active)			6.37 µM (inactive)	< 0.01 µM (active)	< 0.01 µM (active)	< 0.01 µM (active)	12.2 µM (inactive)
CC(=O)C1=C(c2ccccc2)N(C2OC(CO)C(O)C(O)C2O)C(S)=C(C#N)C1c1ccc(Cl)cc1 (stereo not drawn)	39.4 µM (inactive)	15.9 µM (inactive)		16 µM (inactive)	19.7 µM (inactive)	28.1 µM (inactive)	24.8 µM (inactive)	36 µM (inactive)	21.9 µM (inactive)	29.6 µM (inactive)	33.5 µM (inactive)	22.1 µM (inactive)	24.8 µM (inactive)	12.9 µM (inactive)	19.6 µM (inactive)	38.5 µM (inactive)	29.1 µM (inactive)	10.3 µM (inactive)	28.8 µM (inactive)	23.7 µM (inactive)
COc1cc2c(cc1OC)C(=O)/C(=C/c1ccc([N+](=O)[O-])cc1)CC2	> 10 µM (inactive)	> 10 µM (inactive)	> 10 µM (inactive)	> 10 µM (inactive)	> 10 µM (inactive)	> 10 µM (inactive)	> 10 µM (inactive)	> 10 µM (inactive)	> 10 µM (inactive)	> 10 µM (inactive)	> 10 µM (inactive)	> 10 µM (inactive)	> 10 µM (inactive)	> 10 µM (inactive)	> 10 µM (inactive)	> 10 µM (inactive)	> 10 µM (inactive)	> 10 µM (inactive)		
COc1ccc(N(C(=O)Nc2ccc(Cl)c(Cl)c2)c2ccccc2)cc1	> 10 µM (inactive)	> 10 µM (inactive)	> 10 µM (inactive)	> 10 µM (inactive)	> 10 µM (inactive)	> 10 µM (inactive)	> 10 µM (inactive)	> 10 µM (inactive)	> 10 µM (inactive)	> 10 µM (inactive)	> 10 µM (inactive)	> 10 µM (inactive)	> 10 µM (inactive)		> 10 µM (inactive)	> 10 µM (inactive)	> 10 µM (inactive)	> 10 µM (inactive)	> 10 µM (inactive)	> 10 µM (inactive)
